Where two headings read alike, the source gives them in different places.
Columns and labels:
[1] = molecular target: T1, Corynebacterium glutamicum glucose 6-phosphate dehydrogenase (G6PDH, zwf), wild type (Corynebacterium glutamicum, UniProt Q8NQ63); experiment: Kinetic characterization of wild type G6P dehydrogenase (Michaelis-Menten constants and inhibition by metabolites); format: biochemical; details: relative to the activity without addition (100%)
T1 sequence (Q8NQ63 1-484): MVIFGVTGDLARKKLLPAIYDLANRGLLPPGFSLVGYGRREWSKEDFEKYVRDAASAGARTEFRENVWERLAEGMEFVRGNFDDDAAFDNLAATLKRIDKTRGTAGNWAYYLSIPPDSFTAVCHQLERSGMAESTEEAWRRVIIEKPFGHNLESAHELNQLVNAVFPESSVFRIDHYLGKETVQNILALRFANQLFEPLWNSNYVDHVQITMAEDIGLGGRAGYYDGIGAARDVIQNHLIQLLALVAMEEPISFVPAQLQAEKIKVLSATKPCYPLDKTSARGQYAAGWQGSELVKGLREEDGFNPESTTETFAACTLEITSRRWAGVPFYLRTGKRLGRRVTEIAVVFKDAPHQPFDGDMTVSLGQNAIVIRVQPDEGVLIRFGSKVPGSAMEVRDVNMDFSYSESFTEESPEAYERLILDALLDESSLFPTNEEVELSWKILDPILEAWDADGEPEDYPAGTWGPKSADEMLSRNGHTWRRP
T1 sequence (Q8NQ62 1-319 partner): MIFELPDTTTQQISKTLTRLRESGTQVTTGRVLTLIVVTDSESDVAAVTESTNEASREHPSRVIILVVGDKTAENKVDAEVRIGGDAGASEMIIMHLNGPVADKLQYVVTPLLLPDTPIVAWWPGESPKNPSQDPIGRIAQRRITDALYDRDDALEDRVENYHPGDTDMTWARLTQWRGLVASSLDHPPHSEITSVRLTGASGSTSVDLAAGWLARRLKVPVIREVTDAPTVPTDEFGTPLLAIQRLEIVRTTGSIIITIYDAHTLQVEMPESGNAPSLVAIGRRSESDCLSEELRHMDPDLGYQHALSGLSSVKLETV
Procedure: (§1) In the exponential growth phase, cells were harvested by centrifugation (5 min, 9800×g, Biofuge stratos, Heraeus, Hanau, Germany), washed once with disruption buffer and finally suspended to 0.25 g CWW per mL. Disruption was performed by sonication (MSE soniprep 150, Sanyo Europe, Munich, Germany) in a ice-water-bath with five 15 sec pulses at 20 microns, or mechanically. To this end, cell suspension was aliquoted in 750 μl amounts in 2 mL Eppendorf tubes containing glass beads. Disruption was performed in a ribolyser (MM301, Retsch, Haan, Germany) at 30 Hz (2×5 min; 5 minutes break in between). Crude cell extracts were obtained by centrifugation for 10 minutes at 13000 rpm (Biofuge fresco, Heraeus, Hanau, Germany) for ribolyser disruption or 2×30 min at 8500 rpm (Biofuge stratos, Heraeus, Hanau, Germany) for disruption by sonication. Protein content was determined by the method of Bradford (Bradford, 1976) with a reagent solution from BioRad (Quick Start Bradford Dye, BioRad, Hercules, USA) and a BSA protein standard.
All measurements were performed as triplicates in a total volume of 1 mL by online monitoring of the change in absorbance in a photospectrometer (Specord 40, Analytik Jena, Jena, Germany or Helios alpha, Thermo Scientific, Waltham, USA). […] Activities are given as specific enzyme activity [U mg^−1] with 1 U=1 μmol min^−1 at 30° C. and calculated from the change in absorbance [A min^−1] and a specific extinction coefficient of ε340=6.22 L mmol^−1 cm^−1 for NAD(P)H. As a general procedure, a master mix without substrate and cell extract was prepared from the stock solutions for the reaction buffer, MgCl2, Co-factors (NADP, NAD, NADH, ADP, TPP, CoA) and coupling enzymes (LDH, G6PDH, PGI, ribose 5-phosphate isomerase (RPI), ribulose 5-phosphate epimerase (RPE), TPI/GDH) and incubated for 10 min at 30° C. […]
Cell disruption was performed in a buffer containing 100 mM Tris/HCl (pH 7.5), 10 mM MgCl2 and 0.75 mM DTT. […] Due to instability of the enzyme, the activity was measured immediately after cell disruption. […]

[2] = molecular target: T2, Corynebacterium glutamicum glucose 6-phosphate dehydrogenase (G6PDH, zwf), variant A243T (Corynebacterium glutamicum, UniProt Q8NQ63); experiment: Kinetic characterization of A243T-variant of G6P dehydrogenase (Michaelis-Menten constants and inhibition by metabolites); format: biochemical; details: for Km: A243T mutant, cell extracts from cells grown on minimal medium with glucose, 30° C., pH 7.8
T2 construct: grown on glucose minimal medium
Procedure: as §1
All measurements were performed as triplicates in a total volume of 1 mL by online monitoring of the change in absorbance in a photospectrometer (Specord 40, Analytik Jena, Jena, Germany or Helios alpha, Thermo Scientific, Waltham, USA). Negative controls were carried out without substrate or cell extract, respectively. Activities are given as specific enzyme activity [U mg^−1] with 1 U=1 μmol min^−1 at 30° C. and calculated from the change in absorbance [A min^−1] and a specific extinction coefficient of ε340=6.22 L mmol^−1 cm^−1 for NAD(P)H. As a general procedure, a master mix without substrate and cell extract was prepared from the stock solutions for the reaction buffer, MgCl2, Co-factors (NADP, NAD, NADH, ADP, TPP, CoA) and coupling enzymes (LDH, G6PDH, PGI, ribose 5-phosphate isomerase (RPI), ribulose 5-phosphate epimerase (RPE), TPI/GDH) and incubated for 10 min at 30° C. Substrate solution and cell extract were provided in 1.5 mL polystyrene cuvettes (Plastibrand, Wertheim, Germany). The reaction was started by quick addition of the master mix.
Cell disruption was performed in a buffer containing 100 mM Tris/HCl (pH 7.5), 10 mM MgCl2 and 0.75 mM DTT. DTT was prepared freshly as 100 mM stock solution and added to the cell suspension before disruption. Due to instability of the enzyme, the activity was measured immediately after cell disruption. The reaction mix for quantification of the G6P dehydrogenase activity contained 100 mM Tris/HCl (pH 7.8), 200 mM KCl, 1 mM NADP, 10 mM MgCl2, 5 mM G6P and 50 μl cell extract. Michaelis-Menten affinity constants were determined by varying the concentrations of the substrates, G6P or NADP, respectively. To test the influence of effectors on activity, the reaction mix was additionally supplemented with ATP, PEP, FBP or NADPH in varied concentrations.

[3] = test system: Corynebacterium glutamicum diaminopimelate dehydrogenase (DDH), SEQ ID NO: 6; details: Wehrmann, et al., 1998; read-out: km value towards ammonium; cited from earlier work

Question: With `Nc1ncnc2c1ncn2[C@@H]1O[C@H](COP(=O)(O)OP(=O)(O)OP(=O)(O)O)[C@@H](O)[C@H]1O` [ATP, Adenosine triphosphate] as the compound, how does the percent remaining activity at 5000 µM ([1]; 5 mM ATP) read?
Answer: 68.8 ± 0.1%

Question: And the “Inhibition by metabolites (Remaining Activity), ATP” value ([2]; 5 mM ATP, relative to the activity without addition (100%))?
Answer: 86.0 ± 0.2%

Question: Which inhibition at 5000 µM ([1]; 5 mM FBP, read-out: Inhibition by metabolites (Remaining Activity), FBP) does the source give for `O=P(O)(O)OC[C@H]1OC(O)(COP(=O)(O)O)[C@@H](O)[C@@H]1O` (stereo partly shown) [FBP, Fructose 1,6-bisphosphate] here?
Answer: 84.4%

Question: And the “Inhibition by metabolites (Remaining Activity), FBP” value ([2]; 5 mM FBP, relative to the activity without addition (100%))?
Answer: 87.0 ± 0.1%

Question: Which Km ([2]; read-out: KM, G6P) does the source give for `O=P(O)(O)OC[C@H]1OC(O)[C@H](O)[C@@H](O)[C@@H]1O` (stereo partly shown) [G6P, Glucose 6-phosphate] here?
Answer: 481 ± 31 µM

Question: With `NC(=O)c1ccc[n+]([C@@H]2O[C@H](COP(=O)(O)OP(=O)(O)OC[C@H]3O[C@@H](n4cnc5c(N)ncnc54)[C@H](OP(=O)(O)O)[C@@H]3O)[C@@H](O)[C@H]2O)c1` [NADP, Nicotinamide adenine dinucleotide phosphate] as the compound, how does the Km ([2]; read-out: KM, NADP) read?
Answer: 75 ± 4 µM

Question: With `NC(=O)C1=CN([C@@H]2O[C@H](COP(=O)(O)OP(=O)(O)OC[C@H]3O[C@@H](n4cnc5c(N)ncnc54)[C@H](OP(=O)(O)O)[C@@H]3O)[C@@H](O)[C@H]2O)C=CC1` [NADPH, Nicotinamide adenine dinucleotide phosphate] as the compound, how does the “inhibition by NADPH” value ([2]; A243T compared with wild type enzyme, FIG. 10B) read?
Answer: No significant difference

Question: Which results are given for `C=C(OP(=O)(O)O)C(=O)O` [PEP, Phosphoenolpyruvate]?
Answer: inhibition at 5000 µM ([1]; 5 mM PEP, read-out: Inhibition by metabolites (Remaining Activity), PEP): 62.6 ± 0.1%; Inhibition by metabolites (Remaining Activity), PEP ([2]; 5 mM PEP, relative to the activity without addition (100%)): 72.5 ± 0.1%

Question: With `N` [ammonium] as the compound, how does the Km [3] read?
Answer: 34000 µM

— patent US9169502B2, “Method of producing L-lysine using a Corynebacterium glutamicum microorganism” (Paik Kwang Industrial Co., Ltd., priority 2010, dated 2015)
